Tests used:
[1] = system: intracellular spermine; assay: Spermine quantitation in HEp2 cells exposed to MGBG (dansylation, RP-HPLC); assay type: cell-based; conditions: for Relative amount of intracellular spermine, HSV infected + MGBG / Relative amount of intracellular spermine, Mock infected + MGBG: HEp2 cells, mock-infected cells without MGBG = 100%, means±SE, 3 experiments; for Relative amount of intracellular spermine, HSV infected + MGBG: 100 μM MGBG added with virus
Experimental: HEp2 cells were grown in 6-well plates (˜10^6 cells/well). Cells were infected or treated with 100 μM MGBG for 12 h or 24 h. For HSV-1-infected cells, MGBG was added simultaneously with viral suspension. Cell extracts and standards (spermine and diaminoheptane as an internal standard, (DAH)) were dansylated according to the procedure described by Seiler (Seiler, 1970) and were then treated using the protocol adapted from Besson (Besson et al., 1986). Dansylation was proceeded in glass vials by mixing 40 μl of HClO4 extracts, 10 μl of DAH , and 100 μl of 0.3 M Na2CO3 (Merck). The reaction was initiated by adding 200 μl of freshly prepared dansyl chloride solution (5mg/ml) in acetone (SDS, spectrosol grade) and allowed to proceed overnight in the dark at room temperature. After dansylation, each sample was diluted with 700 μl H2O, vortexed and applied to a Waters Sep-Pak C18 cartridge (Birnbaum et al., 1988). After washing with 4 ml of 20% methanol, the polyamine containing fraction was eluted with 2 ml of 100% methanol. The separation of polyamines and the quantification of spermine were performed by reverse phase high performance chromatography (RP-HPLC) using a Waters system composed of two models 510 pumps, a Wisp 700 autosampler and a NEC APC4 data module recorder integrator. A Merck F 1050 fluorescence spectrophotometer detected fluorescence (350 nm excitation and 495 nm emission). The separations were performed on a RP18 Merck Lichrocart (25×4 mm, 5 μm) precolumn and a RP18, 100 CH Merck column (125×4 mm; spherical packing 5 μm). The solvent system was an acetonitrile/water gradient at a flow rate of 1 ml/min of acetonitrile 60% in water for 7 min, then acetonitrile 90% for 10 min and a 98% acetonitrile purge for 5 min. The column was reequilibrated to initial 60% acetonitrile conditions during 10 min between two successive injections. For each determination, 50 or 100 μl of dansylated samples were injected onto the column equilibrated in 60% acetonitrile. Spermine was identified by its retention time compared to that of standard spermine. Peak areas were automatically measured by the integrator and evaluated according to the calibration method (Birnbaum et al., 1988). Spermine standard from 10 to 70 pmol was reacted and chromatographed to establish linear standard curve which was used to estimate the absolute amounts of spermine. The absolute limit of detection per injection was 1 pmol for dansylated spermine. Two blank injections were routinely run between calibrations and sample analysis. Mock-infected cells grown in the absence of MGBG were used as the control of intracellular spermine content and was therefore used as 100% value.
MGBG is known to alter the polyamine synthesis in inactivating SAMDC. Therefore, the amount of intracellular spermine was assessed in mock-infected and infected cells after MGBG exposure. Cells were grown for 12 h and 24 h in the presence of 100 μM MGBG which was added to cell medium simultaneously with virus particles for HSV-1 infected cells. Intracellular spermine content was estimated by standard procedure (Besson et al., 1986; Birnbaum et al., 1988; Seiler, 1970).

[2] = system: acyclovir-resistant reference strain DM21; assay: Antiviral susceptibility testing by ELISA on HEp-2 cells, strain DM21; assay type: cell-based, HSV 1; conditions: HEp-2 cells, ELISA; median of at least three assays; drugs diluted in μM; read-out: Susceptibility of strain DM21 (concentration causing 50% inhibition of viral replication, IC50), median
Experimental: Three HSV 1 reference strains were tested : SC16 (acyclovir-susceptible reference strain; (Hill et al., 1975)), DM21 (acyclovir-resistant reference strain derived from SC16; (Efstathiou et al., 1989)) and TP 2.5 (foscarnet-resistant reference strain derived from SC16; (Larder and Darby, 1985)). Antiviral assays were performed in duplicate on HEp-2 cells seeded in 96 wells microplates. Dilutions of virus and drugs were prepared in E-MEM without FCS. Cells were first treated for 24 hours with MGBG using a series of 6 twofold serial dilutions from 12.5 to 400 μM. Infection was then achieved with 5 tenfold dilutions of cell-associated virus (10^−1 to 10^−5). Each dilution was incubated with a series of 6 concentrations of each antiviral drug (from 12.5 to 400 μM in twofold dilutions for MGBG, from 0.16 to 500 μM in fivefold dilutions for acyclovir and from 31 to 1000 μM in twofold dilutions for foscarnet). […] After incubation at 36° C. with 5% CO2 for 24 hours post-infection, medium was replaced with freshly prepared dilutions of MGBG. Viral multiplication was checked 24 hours afterwards by an ELISA (Morfin et al., 1999), using a rabbit monoclonal anti-HSV 1 antibody (BO 114, Dako) and a protein A peroxidase-conjugated (BioRad). The substrate, 2,2′-azino-di(3-ethyl-benzthiazoline) sulfonic acid (ABTS) diluted in ABTS buffer (Boehringer, Mannheim), was added to each well. After 30 min at room temperature, the plates were briefly agitated and optical densities were read at 405 nm with a multichannel spectrophotomoter (Titertek-Multiskan). Optical density values were used with the Biolise program (Life Sciences International) to calculate the concentration of the drug causing a 50% inhibition of viral replication (IC50) by logistic regression analysis.
The capacity of MGBG to preclude infection of three HSV-1 acyclovir and/or foscarnet resistant strains was tested. The reference strains used in this study were the SC16 acyclovir-susceptible reference strain, the DM21 acyclovir-resistant reference strain derived from SC16 and the TP 2.5 foscarnet-resistant reference strain derived from SC16 (Efstathiou et al., 1989; Hill et al., 1975; Larder and Darby, 1985). In each experiment, dose response curves were constructed for […], for acyclovir, and for MGBG. The ED values were determined.

Compound: CC(C=NNC(=N)N)=NNC(=N)N [MGBG, methylglyoxal bis(guanylhydrazone)]
- amount of intracellular spermine relative to control mock-infected cells grown without MGBG ([1]; 100 μM MGBG, both mock-infected and HSV-1-infected cells): 60-65%
- Relative amount of intracellular spermine, HSV infected + MGBG ([1]; 12 h): 61.8 ± 9.0%
- Relative amount of intracellular spermine, HSV infected + MGBG ([1]; 24 h): 66.2 ± 7.0%
- Relative amount of intracellular spermine, Mock infected + MGBG ([1]; 100 μM MGBG, 12 h): 60.6 ± 1.4%
- Relative amount of intracellular spermine, Mock infected + MGBG ([1]; 100 μM MGBG, 24 h): 65.3 ± 14.3%
- IC50 [2]: 75 µM
